One may read the pIC50 as −log10 of the IC50, conventionally taken in molar units.

SMILES strings stand for the structures. pIC50: −log10 of the molar value.

One experiment concerns neointima formation.
Assay: not given
The note with it: rats; cited from earlier work.
Take `COc1ccc(CNc2nc(N(CCO)CCO)nc3c2ncn3C(C)C)cc1` [CVT-313]: the “inhibition of neointima formation” value is “greater than 80%”.

For the next experiment, the target named is Cdk9/cyclinT1 (Homo sapiens, UniProt P50750). Description: Cdk9/CyclinT1 IMAP assay.
Chain of Cdk9/cyclinT1 (P50750 whole entry): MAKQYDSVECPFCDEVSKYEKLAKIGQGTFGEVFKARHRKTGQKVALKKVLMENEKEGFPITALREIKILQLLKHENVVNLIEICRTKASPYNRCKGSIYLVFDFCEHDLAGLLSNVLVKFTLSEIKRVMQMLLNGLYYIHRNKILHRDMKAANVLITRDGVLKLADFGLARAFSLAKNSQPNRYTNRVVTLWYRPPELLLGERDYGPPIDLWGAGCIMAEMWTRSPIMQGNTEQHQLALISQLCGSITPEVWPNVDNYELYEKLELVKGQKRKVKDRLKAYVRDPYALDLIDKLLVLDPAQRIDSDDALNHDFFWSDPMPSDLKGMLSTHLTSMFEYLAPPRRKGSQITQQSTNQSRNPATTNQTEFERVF
Chain of Cdk9/cyclinT1 (O60563 whole entry partner): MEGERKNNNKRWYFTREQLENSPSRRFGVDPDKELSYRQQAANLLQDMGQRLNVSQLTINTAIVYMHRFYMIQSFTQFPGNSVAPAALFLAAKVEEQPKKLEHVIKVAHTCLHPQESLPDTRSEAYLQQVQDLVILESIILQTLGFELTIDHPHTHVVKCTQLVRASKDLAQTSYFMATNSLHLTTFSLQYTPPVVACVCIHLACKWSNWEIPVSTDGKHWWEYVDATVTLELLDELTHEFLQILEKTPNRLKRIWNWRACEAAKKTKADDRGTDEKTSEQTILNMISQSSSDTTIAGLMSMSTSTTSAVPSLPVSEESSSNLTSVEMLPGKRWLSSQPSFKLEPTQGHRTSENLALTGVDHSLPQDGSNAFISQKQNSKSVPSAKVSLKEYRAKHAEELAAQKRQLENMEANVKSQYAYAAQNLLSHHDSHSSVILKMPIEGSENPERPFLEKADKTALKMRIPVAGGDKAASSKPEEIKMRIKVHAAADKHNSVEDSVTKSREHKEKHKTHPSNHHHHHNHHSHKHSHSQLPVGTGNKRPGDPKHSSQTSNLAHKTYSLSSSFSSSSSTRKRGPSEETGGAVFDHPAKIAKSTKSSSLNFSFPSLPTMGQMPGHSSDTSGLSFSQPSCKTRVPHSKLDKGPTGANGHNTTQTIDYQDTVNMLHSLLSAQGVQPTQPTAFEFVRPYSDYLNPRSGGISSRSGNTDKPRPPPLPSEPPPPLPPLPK
Settings: not given
`Clc1cnc(N[C@H]2CC[C@H](N3CCCC3)CC2)cc1-c1cc(NCC2CCOCC2)cnc1Cl` [Compound 76, 2,5′-dichloro-N2′-(trans-4-(pyrrolidin-1-yl)cyclohexyl)-N5-((tetrahydro-2H-pyran-4-yl)methyl)-3,4′-bipyridine-2′,5-diamine] gave a pIC50 of 7.46. The compound `N[C@H]1CC[C@H](Nc2cc(-c3cnc(Cl)c(NCC4CCOCC4)c3)c(Cl)cn2)CC1` [Compound 77, N2′-(trans-4-aminocyclohexyl)-5′,6-dichloro-N5-((tetrahydro-2H-pyran-4-yl)methyl)-3,4′-bipyridine-2′,5-diamine] gave a negative-log IC50 (pIC50) of over 8.10.

`COCCN[C@H]1CC[C@H](Nc2cc(-c3cnc(Cl)c(NCC4CCOCC4)c3)c(Cl)cn2)CC1` [Compound 78, 5′,6-dichloro-N2′-(trans-4-(2-methoxyethylamino)cyclohexyl)-N5-((tetrahydro-2H-pyran-4-yl)methyl)-3,4′-bipyridine-2′,5-diamine] showed a pIC50 of over 8.10. The same measure, in the same setting: with `N[C@H]1CC[C@H](Nc2cc(-c3cc(NCC4CCOCC4)cnc3Cl)c(Cl)cn2)CC1` [Compound 79] the figure was over 8.10; with `OC[C@H]1CC[C@H](Nc2cc(-c3cnc(Cl)c(NCC4CCOCC4)c3)c(Cl)cn2)CC1` [Compound 80], over 8.10.

The compound `Clc1cnc(N[C@H]2CC[C@H](N3CCCC3)CC2)cc1-c1cnc(Cl)c(NCC2CCOCC2)c1` [Compound 81] had a pIC50 of 7.35. Same read-out and setting: in the case of `COCCN[C@H]1CC[C@H](Nc2cc(-c3cncc(NCc4cccc(F)c4)c3)c(Cl)cn2)CC1` [Compound 82] it was over 8.10; in that of `NC[C@H]1CC[C@H](Nc2cc(-c3cnc(Cl)c(NCC4CCOCC4)c3)c(Cl)cn2)CC1` [Compound 83], over 8.10.

The compound `Fc1cccc(CNc2cncc(-c3cc(N[C@H]4CC[C@H](N5CCCC5)CC4)ncc3Cl)c2)c1` [Compound 84] showed a pIC50 of over 8.10. Regarding `COc1ncc(-c2cc(N[C@H]3CC[C@H](N)CC3)ncc2Cl)cc1NCC1CCOCC1` [Compound 85], the pIC50 was 7.02. As for `O[C@H]1CC[C@H](Nc2cc(-c3cnc(Cl)c(NCC4CCOCC4)c3)c(Cl)cn2)CC1` [Compound 86], the pIC50 is over 8.10. In the case of `N[C@H]1CC[C@H](Nc2cc(-c3cnc(O)c(NCC4CCOCC4)c3)c(Cl)cn2)CC1` [Compound 87, 2′-(trans-4-aminocyclohexylamino)-5′-chloro-5-((tetrahydro-2H-pyran-4-yl)methyl)amino-3,4′-bipyridin-6-ol], the pIC50 was 6.38. `N[C@H]1CC[C@H](Nc2cc(-c3cncc(OCc4cccc(F)c4)c3)c(Cl)cn2)CC1` [Compound 88] showed a pIC50 of over 9.00.

In turn, `NC[C@H]1CC[C@H](Nc2cc(-c3cncc(OCc4cccc(F)c4)c3)c(Cl)cn2)CC1` [Compound 89] gave a pIC50 of over 9.00. With `O[C@H]1CCCC[C@@H]1N[C@H]1CC[C@H](Nc2cc(-c3cc(NCC4CCOCC4)cnc3Cl)c(Cl)cn2)CC1` [Compound 90], the pIC50 was 8.55. Consider `O[C@H]1CCCC[C@@H]1N[C@H]1CC[C@H](Nc2cc(-c3cnc(Cl)c(NCC4CCOCC4)c3)c(Cl)cn2)CC1` [Compound 91], for which the pIC50 is 8.57.

Turning to `O[C@H]1CCCC[C@@H]1N[C@H]1CC[C@H](Nc2cc(-c3cnc(F)c(NCC4CCOCC4)c3)c(Cl)cn2)CC1` [Compound 92], the pIC50 was 8.74.

The values are drawn from patent US20130324530A1 (Novartis AG, priority 2010, published 2013).
